Article PMC10444817, “New proapoptotic chemotherapeutic agents based on the quinolone-3-carboxamide scaffold acting by VEGFR-2 inhibition” (Scientific Reports, 2023)
Values joined by “and” are separate entries in the source; they are usually repeats but may differ in a detail not shown here. Equal values may be shown once.

How the values were obtained:
HepG2 cells [1] = assay: MTT cytotoxicity against HepG2 tumor cell line; details: read-out: Cytotoxic activity against HepG2 cell line IC50, 48 h, average of 3 independent runs ± SE
VEGFR-2 = VEGFR-2 (Homo sapiens, UniProt P35968); assay: VEGFR-2 kinase inhibition assay (Kinase-Glo MAX luminescence kit, BPS Bioscience); details: for IC50: VEGFR-2 inhibitory activity IC50, average of 3 independent runs ± SE; for Fold increase in VEGFR-2 inhibitory activity compared to para methyl substituted derivatives 10b and 10k: 4-isopropyl vs 4-CH3 analogue
Sequence of VEGFR-2 (P35968 20-1356): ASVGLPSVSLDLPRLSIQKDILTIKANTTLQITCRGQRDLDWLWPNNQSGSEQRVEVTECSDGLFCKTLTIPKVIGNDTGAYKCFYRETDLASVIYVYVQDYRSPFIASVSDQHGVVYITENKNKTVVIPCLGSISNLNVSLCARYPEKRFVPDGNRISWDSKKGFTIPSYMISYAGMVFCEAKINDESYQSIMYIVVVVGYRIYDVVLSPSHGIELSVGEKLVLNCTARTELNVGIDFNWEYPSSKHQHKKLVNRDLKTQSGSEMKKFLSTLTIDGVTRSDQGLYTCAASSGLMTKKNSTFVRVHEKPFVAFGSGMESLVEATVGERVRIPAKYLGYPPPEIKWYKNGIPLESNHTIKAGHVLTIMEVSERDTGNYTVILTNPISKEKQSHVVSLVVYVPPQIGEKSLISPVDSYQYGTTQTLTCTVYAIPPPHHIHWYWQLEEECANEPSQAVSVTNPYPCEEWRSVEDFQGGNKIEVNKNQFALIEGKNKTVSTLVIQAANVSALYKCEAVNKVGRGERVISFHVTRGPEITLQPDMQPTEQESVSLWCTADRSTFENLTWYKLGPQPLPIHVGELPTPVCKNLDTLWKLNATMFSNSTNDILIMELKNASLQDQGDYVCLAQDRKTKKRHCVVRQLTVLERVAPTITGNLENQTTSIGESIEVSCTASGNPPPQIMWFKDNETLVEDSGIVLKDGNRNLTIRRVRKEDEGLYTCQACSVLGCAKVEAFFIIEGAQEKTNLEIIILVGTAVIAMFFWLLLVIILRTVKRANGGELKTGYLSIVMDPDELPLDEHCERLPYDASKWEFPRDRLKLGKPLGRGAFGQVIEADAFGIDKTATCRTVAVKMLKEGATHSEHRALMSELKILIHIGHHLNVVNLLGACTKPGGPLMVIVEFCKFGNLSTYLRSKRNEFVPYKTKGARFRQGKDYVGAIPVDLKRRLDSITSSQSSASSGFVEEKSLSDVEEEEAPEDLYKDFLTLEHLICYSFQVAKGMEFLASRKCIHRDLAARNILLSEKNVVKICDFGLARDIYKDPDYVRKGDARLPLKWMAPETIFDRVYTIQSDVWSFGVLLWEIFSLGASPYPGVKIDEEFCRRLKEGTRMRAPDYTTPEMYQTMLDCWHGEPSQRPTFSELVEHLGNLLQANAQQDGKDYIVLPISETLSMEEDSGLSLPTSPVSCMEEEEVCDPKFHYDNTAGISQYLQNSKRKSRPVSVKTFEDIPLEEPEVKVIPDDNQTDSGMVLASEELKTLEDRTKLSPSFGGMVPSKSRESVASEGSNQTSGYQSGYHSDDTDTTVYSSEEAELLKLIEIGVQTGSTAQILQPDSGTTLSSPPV

Caspase-7 [2] = assay: Western blotting of Caspase-7 protein expression in HepG2 cells; assay type: cell-based, human; details: HepG2, 48 h at IC50 concentration; normalized to β-actin
Protocol: (§1) Western blotting was performed to assess the relative normalized protein expression of the apoptotic proteins Bax and Caspase-7 in HepG2 cancer cells when pre-treated for 48 h with compound 10i at its IC50 concentration in comparison to non-treated HepG2 cells. […] The current findings provide strong evidence for the positive apoptotic activity of compound 10i in HepG2 cells that accompanies its inhibitory activity on cell proliferation.
(§2) Cells were harvested and washed with phosphate buffer saline (PBS). The cells were then lysed in 10 mM Tris–HCl, 100 mM NaCl, 0.5% Triton X-100, pH 7.6 with EDTA-free Protease Inhibitor Cocktail. This was followed by a centrifugation step at 13,000g for 20 min at 4 °C and direct transfer to sodium dodecyl sulfate–polyacrylamide gel (SDS–PAGE). Western blot analysis was performed using primary antibodies against the target proteins and HRP-conjugated secondary antibodies (Table 12). The chemiluminescence reaction was performed using the ECL western blot HRP substrate (Pierce, Thermo Fisher Scientific). Finally, densitometric quantification of Western blot protein bands were performed with IMAGEJ Software.

VEGFR-2 gene = assay: RT-qPCR of VEGFR-2 gene expression in HepG2 cells; assay type: cell-based, human; details: HepG2, 48 h at IC50 concentration; normalized to β-actin
Protocol: RT-qPCR was performed to assess the relative normalized gene expression of VEGFR-2 gene in HepG2 cancer cells when pre-treated for 48 h with compound 10i at its IC50 concentration utilizing non-treated HepG2 cells as negative control.
Total RNA was isolated from both 10i-treated and untreated HepG2 cell line pellets using Qiagen RNeasy Mini kit Cat# No. 74104 according to the manufacturer’s guidelines. Then, quantification and quality assessment of the isolated RNA samples were determined by the Nanodrop spectrophotometer at A230, A260 and A280.
cDNA synthesis was performed for RNA using the Promega cDNA Synthesis AMV Reverse Transcriptase Kit (cat# M5108) according to the manufacturer’s instructions. The cDNA synthesis was performed on Bio-Rad 100 Thermal cycler.
Primers for the VEGFR-2 gene were designed and synthesized followed by primer validation and optimization of PCR amplification conditions. RT-qPCR expression analysis for the required genes (ß-actin and VEGFR-2) has been done using the Qiagen Quanti Nova SYBR Green PCR Kit (cat # 208052).

[3] = MTT cytotoxicity against THLE-2 normal liver cell line; assay type: cell-based, human; details: human, THLE-2 normal liver epithelial cells; MTT, 48 h; measured in triplicates; read-out: CC50 cytotoxic activity against THLE-2 normal cell line
Protocol: (§3) The produced formazan was measured by means of the spectrophotometer ROBONIK P2000 at a wavelength of 570 nm. The Cytotoxic concentration values (CC50) of the assessed compounds were reported as the mean of three independent runs ± SE[69].

[4] = system: Transformed Human Liver Epithelial-2 normal cell line (THLE-2); assay: as above; assay type: cell-based; details: CC50 (THLE-2) / IC50 (HepG2)
Protocol: as §3

Bax [5] = assay: Western blotting of Bax protein expression in HepG2 cells; assay type: cell-based, human; details: HepG2, 48 h at IC50 concentration; normalized to β-actin
Protocol: as §1, §2

HepG2 cells [6] = assay: Cell cycle analysis by DNA flow cytometry; assay type: cell-based, human; details: HepG2, 48 h at IC50 concentration; frequency of cells, triplicate ± SD
Protocol: DNA flow cytometry was used to analyze the cell cycle kinetics of HepG2 cancer cells when pre-treated for 48 h with compound 10i at its IC50 concentration. Non-treated HepG2 cells were considered as negative control.
The assay was performed as previously mentioned. In brief, HepG2 cells were pre-incubated with compound 10i at its IC50 concentration for 48 h. Then, about 10^5 cells were attained by trypsinization and washed with phosphate buffer saline (PBS). This was followed by a resuspension step with 60% ice-cold ethanol and incubation till fixation occurs. The fixed cells were washed again and resuspended in a buffer that included 50 μg/mL RNAase A and 10 μg/mL propidium iodide. Finally, cells were incubated at 37 °C in the dark for 20 min and analyzed for the cell cycle kinetics using flow cytometry where FL2 (λex/em 535/617 nm) was used as the signal detector (ACEA Novocyt flowcytometer, ACEA Biosciences Inc., San Diego, CA, USA). A query of 12,000 events was recommended for each sample. ACEA NovoExpress software (ACEA Biosciences Inc., San Diego, CA, USA) was used for analysis.

Caspase-7 [7] = system: Caspase-7; parameters: method as in Li et al. 44; details: ref Li et al. 44; cited from earlier work
Bax [8] = system: Bax; parameters: method as in Li et al. 44; details: ref Li et al. 44; cited from earlier work
HepG2 cells [9] = details: cited from earlier work
HepG2 cells [10] = details: at its IC50 for 48 h; cited from earlier work

melting point	IC50 (VEGFR-2)	Compound	IC50 (HepG2 cells [1])	also measured
> 300 °C	138 ± 0.01 nM	O=C(Nc1ccccc1)Nc1ccc(NC(=O)c2c[nH]c3ccc(Cl)cc3c2=O)cc1 [Compound 10a, 6-Chloro-4-oxo-N-(4-(3-phenylureido)phenyl)-1,4-dihydroquinoline-3-carboxamide]	4600 ± 280 nM	–
> 300 °C	578 ± 0.03 nM	Cc1ccc(NC(=O)Nc2ccc(NC(=O)c3c[nH]c4ccc(Cl)cc4c3=O)cc2)cc1 [Compound 10b, 6-Chloro-4-oxo-N-(4-(3-(p-tolyl)ureido)phenyl)-1,4-dihydroquinoline-3-carboxamide]	50800 ± 3160 nM	–
> 300 °C	169 ± 0.01 nM	Cc1cccc(NC(=O)Nc2ccc(NC(=O)c3c[nH]c4ccc(Cl)cc4c3=O)cc2)c1 [Compound 10c, 6-Chloro-4-oxo-N-(4-(3-(m-tolyl)ureido)phenyl)-1,4-dihydroquinoline-3-carboxamide]	4140 ± 250 nM	–
> 300 °C	69 ± 0.02 nM	Cc1ccccc1NC(=O)Nc1ccc(NC(=O)c2c[nH]c3ccc(Cl)cc3c2=O)cc1 [Compound 10d, 6-Chloro-4-oxo-N-(4-(3-(o-tolyl)ureido)phenyl)-1,4-dihydroquinoline-3-carboxamide]	1070 ± 60 nM	–
> 300 °C	197 nM and 179 nM	O=C(Nc1ccc(F)cc1)Nc1ccc(NC(=O)c2c[nH]c3ccc(Cl)cc3c2=O)cc1 [Compound 10e, 6-Chloro-N-(4-(3-(4-fluorophenyl)ureido)phenyl)-4-oxo-1,4-dihydroquinoline-3-carboxamide]	880 ± 50 nM	–
> 300 °C	104.5 ± 0.005 nM	O=C(Nc1ccc(NC(=O)c2c[nH]c3ccc(Cl)cc3c2=O)cc1)Nc1cccc(C(F)(F)F)c1 [Compound 10f, 6-Chloro-4-oxo-N-(4-(3-(3-(trifluoromethyl)phenyl)ureido)phenyl)-1,4-dihydroquinoline-3-carboxamide]	62000 ± 3870 nM	–
> 300 °C	1603 ± 0.06 nM	N#Cc1ccc(NC(=O)Nc2ccc(NC(=O)c3c[nH]c4ccc(Cl)cc4c3=O)cc2)cc1 [Compound 10g, 6-Chloro-N-(4-(3-(4-cyanophenyl)ureido)phenyl)-4-oxo-1,4-dihydroquinoline-3-carboxamide]	43200 ± 2590 nM	–
> 300 °C	937 ± 0.04 nM	O=C(Nc1ccc(NC(=O)c2c[nH]c3ccc(Cl)cc3c2=O)cc1)Nc1ccc2ncsc2c1 [Compound 10h, N-(4-(3-(Benzo[d]thiazol-6-yl)ureido)phenyl)-6-chloro-4-oxo-1,4-dihydroquinoline-3-carboxamide]	14900 ± 520 nM	Fold decrease in VEGFR-2 inhibitory activity (VEGFR-2; benzothiazole derivative, comparator not named): about 5.5 fold
–	36 ± 0.01 nM	CC(C)c1ccc(NC(=O)Nc2ccc(NC(=O)c3c[nH]c4ccc(Cl)cc4c3=O)cc2)cc1 [Compound 10i, 6-Chloro-N-(4-(3-(4-isopropylphenyl)ureido)phenyl)-4-oxo-1,4-dihydroquinoline-3-carboxamide]	1600 ± 170 nM	Induction of Caspase-7 protein expression compared to negative control (Caspase-7 [2]): ≤ 6 folds; Fold increase in VEGFR-2 inhibitory activity compared to para methyl substituted derivatives 10b and 10k (VEGFR-2): more than 16 fold; Decrease of VEGFR-2 gene expression compared to untreated cells (VEGFR-2 gene): 84%; CC50 at 48 h [3]: 21000 nM; Selectivity index (SI) [4]: 13.13; Induction of Bax protein expression compared to negative control (Bax [5]): up to 20 folds; Freq G1 (HepG2 cells [6]): ***2.067 ± 0.189; Freq G2 (HepG2 cells [6]): ***49.80 ± 1.466; Freq S (HepG2 cells [6]): ***7.920 ± 0.2117; Freq Sub-G1 (HepG2 cells [6]): ***20.80 ± 0.7102
> 300 °C	340 ± 0.01 nM	O=C(Nc1ccccc1)Nc1ccc(NC(=O)c2c[nH]c3ccc(F)cc3c2=O)cc1 [Compound 10j, 6-Fluoro-4-oxo-N-(4-(3-phenylureido)phenyl)-1,4-dihydroquinoline-3-carboxamide]	41900 ± 2520 nM	–
> 300 °C	2226 ± 0.09 nM	Cc1ccc(NC(=O)Nc2ccc(NC(=O)c3c[nH]c4ccc(F)cc4c3=O)cc2)cc1 [Compound 10k, 6-Fluoro-4-oxo-N-(4-(3-(p-tolyl)ureido)phenyl)-1,4-dihydroquinoline-3-carboxamide]	34200 ± 2060 nM	–
> 300 °C	317 ± 0.01 nM	Cc1cccc(NC(=O)Nc2ccc(NC(=O)c3c[nH]c4ccc(F)cc4c3=O)cc2)c1 [Compound 10l, 6-Fluoro-4-oxo-N-(4-(3-(m-tolyl)ureido)phenyl)-1,4-dihydroquinoline-3-carboxamide]	14200 ± 820 nM	–
> 300 °C	181 ± 0.01 nM	Cc1ccccc1NC(=O)Nc1ccc(NC(=O)c2c[nH]c3ccc(F)cc3c2=O)cc1 [Compound 10m, 6-Fluoro-4-oxo-N-(4-(3-(o-tolyl)ureido)phenyl)-1,4-dihydroquinoline-3 carboxamide]	13000 ± 750 nM	–
> 300 °C	257 ± 0.01 nM	O=C(Nc1ccc(F)cc1)Nc1ccc(NC(=O)c2c[nH]c3ccc(F)cc3c2=O)cc1 [Compound 10n, 6-Fluoro-N-(4-(3-(4-fluorophenyl)ureido)phenyl)-4-oxo-1,4-dihydroquinoline-3-carboxamide]	2880 ± 140 nM	–
> 300 °C	38 ± 0.02 nM	O=C(Nc1ccc(NC(=O)c2c[nH]c3ccc(F)cc3c2=O)cc1)Nc1cccc(C(F)(F)F)c1 [Compound 10o, 6-Fluoro-4-oxo-N-(4-(3-(3-(trifluoromethyl)phenyl)ureido)phenyl)-1,4-dihydroquinoline-3-carboxamide]	2760 ± 100 nM	CC50 at 48 h [3]: 15200 nM; Selectivity index (SI) [4]: 5.52
> 300 °C	97 ± 0.01 nM	CC(C)c1ccc(NC(=O)Nc2ccc(NC(=O)c3c[nH]c4ccc(F)cc4c3=O)cc2)cc1 [Compound 10p, 6-Fluoro-N-(4-(3-(4-isopropylphenyl)ureido)phenyl)-4-oxo-1,4-dihydroquinoline-3-carboxamide]	8140 ± 470 nM	Fold increase in VEGFR-2 inhibitory activity compared to para methyl substituted derivatives 10b and 10k (VEGFR-2): more than 16 fold
–	–	CNC(=O)c1cc(Oc2ccc(NC(=O)Nc3ccc(Cl)c(C(F)(F)F)c3)cc2)ccn1 [Sorafenib]	8380 ± 500 nM	Effect on caspase-7 expression in HepG2 cells (Caspase-7 [7]): significantly upregulate the expression of caspase-7; Effect on Bax expression in HepG2 cells (Bax [8]): no significant upregulation; Combined apoptosis, percent cell population (HepG2 cells [9]): 6.37%; Late apoptotic phase, percent cell population (HepG2 cells [9]): 4.2%; CC50 at 48 h [3]: 18500 nM; Effect on cell cycle kinetics of HepG2 cells (HepG2 cells [10]): sequestration of cells in the PreG1 (or Sub-G1 (G0)), as well as cell growth arrest in G2/M phase
